pIC50: −log10 of the molar value.
Legend:
[1] = Plasma level of compound 2 measured at 30 min in sprague-dawley rat after 2 mg/kg intravenous administration of compound; assay type: ADME, organism-based; set-up: dose 2 mg/kg, route intravenous; conditions: in vivo, 0.5 h, read-out: Plasma level
[2] = Plasma level measured at 30 min in sprague-dawley rat upon intravenous administration [dosed in PEG-400 solution]; assay type: ADME, organism-based; conditions: read-out: Plasma level
[3] = Plasma level measured at 30 min in sprague-dawley rat upon intravenous administration; assay type: ADME; conditions: read-out: Plasma level
[4] = molecular target: Prostaglandin G/H synthase 1 (Homo sapiens, UniProt P23219); experiment: Inhibitory concentration against prostaglandin G/H synthase 1 of human whole blood
Chain of Prostaglandin G/H synthase 1 (P23219 whole entry): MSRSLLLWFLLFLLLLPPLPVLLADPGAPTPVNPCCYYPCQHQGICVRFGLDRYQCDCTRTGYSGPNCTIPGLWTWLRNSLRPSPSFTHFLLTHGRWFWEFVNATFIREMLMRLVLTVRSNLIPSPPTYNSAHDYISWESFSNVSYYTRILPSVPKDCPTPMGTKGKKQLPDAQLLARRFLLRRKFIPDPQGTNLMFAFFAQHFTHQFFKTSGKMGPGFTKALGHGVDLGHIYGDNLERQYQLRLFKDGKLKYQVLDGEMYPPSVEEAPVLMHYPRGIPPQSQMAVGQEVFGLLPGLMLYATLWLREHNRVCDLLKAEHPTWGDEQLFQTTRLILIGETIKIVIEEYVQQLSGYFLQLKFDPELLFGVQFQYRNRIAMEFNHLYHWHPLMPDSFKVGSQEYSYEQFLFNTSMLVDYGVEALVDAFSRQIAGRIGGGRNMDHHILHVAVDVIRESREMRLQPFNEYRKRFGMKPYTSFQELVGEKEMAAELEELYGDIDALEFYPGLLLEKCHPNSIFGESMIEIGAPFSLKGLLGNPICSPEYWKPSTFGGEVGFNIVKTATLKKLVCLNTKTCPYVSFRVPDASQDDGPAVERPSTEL

With CC[C@]1(C)OC2(OCC(CO)O2)C(OC(C)C)=C1c1ccc(S(C)(=O)=O)cc1 (stereo partly specified) the concentration [1] was 2.8 µM and the concentration at 0.5 h [2] was 1.4 µM.

Work on CC[C@]1(C)OC2(OCC(COP(=O)([O-])OCC[N+](C)(C)C)O2)C(OC(C)C)=C1c1ccc(S(C)(=O)=O)cc1 (stereo partly specified) yielded a concentration at 0.5 h [3] of 0.2 µM and a concentration [1] of 0.2 µM.

For CC[C@]1(C)O/C(=N\[C@@H](CO)C(=O)O)C(OC(C)C)=C1c1ccc(S(C)(=O)=O)cc1, the concentration [1] was under 0.1 µM.

Work on CC[C@]1(C)O/C(=N\OCC(=O)O)C(OC(C)C)=C1c1ccc(S(C)(=O)=O)cc1 yielded a concentration [1] of under 0.1 µM.

Work on CC[C@]1(C)OC2(OCC(C3OC(=O)C(O)=C3O)O2)C(OC(C)C)=C1c1ccc(S(C)(=O)=O)cc1 (stereo partly specified) yielded a concentration [1] of 0.1 µM.

For CC[C@]1(C)OC2(OCC(COC(=O)CCC(=O)[O-])O2)C(OC(C)C)=C1c1ccc(S(C)(=O)=O)cc1.[Na+] (stereo partly specified), the concentration at 0.5 h [3] was under 0.1 µM and the concentration [1] was 0.4 µM.

With CC1(O)OC(=O)C(c2ccc(Cl)cc2)=C1c1ccc(S(C)(=O)=O)cc1 (stereo unspecified) the pIC50 [4] was under 4.07.

CC[C@]1(C)OC(=O)C(OC(C)C)=C1c1ccc(S(C)(=O)=O)cc1 gave a pIC50 [4] of under 4.07.

— ChEMBL document CHEMBL1144376, “Novel approach to pro-drugs of lactones: water soluble imidate and ortho-ester derivatives of a furanone-based COX-2 selective inhibitor” (Bioorg Med Chem Lett, 2005)
